The source of these data is PMC5501184 (Journal of medicinal chemistry, 2017).

The Kd is a measure of binding affinity in units of concentration. In general, inhibition refers to the relative decrease from the control value, in per cent.

The structures appear in SMILES notation. Where two headings read alike, the source gives them in different places.

Series [1] concerns the target T1, hDAT (Homo sapiens, UniProt Q01959). The note with it: 10 μM; [^3H]24 binding, PDSP; ref Janowsky et al.[3]; cited from earlier work.
The subject of a further series is mouse. The note with it: cited from earlier work.
Series [2] has as its system cytochrome P450 (5 isozymes). The note with it: cited from earlier work.
For series [3] the following is noted: cited from earlier work.
For series [4] the following is noted: metabolomic study; cited from earlier work.
The target in a further series is mDAT (Mus musculus, UniProt Q61327). As to the kind of experiment: [^125I]23 binding to mDAT expressed in HEK-293 cells.
Chain of mDAT (Q61327 whole entry): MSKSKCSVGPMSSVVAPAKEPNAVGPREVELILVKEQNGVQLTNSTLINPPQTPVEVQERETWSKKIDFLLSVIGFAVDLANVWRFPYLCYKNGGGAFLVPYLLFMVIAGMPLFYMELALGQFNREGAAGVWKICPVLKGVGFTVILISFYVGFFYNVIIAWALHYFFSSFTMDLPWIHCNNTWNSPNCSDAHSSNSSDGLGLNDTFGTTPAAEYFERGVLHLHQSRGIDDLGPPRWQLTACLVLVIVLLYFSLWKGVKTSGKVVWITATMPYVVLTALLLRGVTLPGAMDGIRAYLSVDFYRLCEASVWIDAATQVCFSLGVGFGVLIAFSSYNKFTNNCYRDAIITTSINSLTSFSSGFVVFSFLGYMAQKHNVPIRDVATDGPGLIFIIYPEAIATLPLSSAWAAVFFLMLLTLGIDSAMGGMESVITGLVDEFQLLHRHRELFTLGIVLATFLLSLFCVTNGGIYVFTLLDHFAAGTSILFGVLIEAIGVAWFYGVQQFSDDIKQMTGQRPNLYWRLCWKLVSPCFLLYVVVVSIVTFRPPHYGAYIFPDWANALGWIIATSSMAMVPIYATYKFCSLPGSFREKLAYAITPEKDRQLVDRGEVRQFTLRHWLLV
For series [5], the target named is T1, hDAT. As to conditions: read-out: Kd of [^125I]23 at hDAT; no modulator; cited from earlier work.
Series [6] addresses T1, hDAT. Briefly: PDSP screen: [^3H]24 binding at hDAT. As to conditions: read-out: hDAT Binding Inhibition, % of control.
For series [7], the target named is T1, hDAT. Briefly: [^3H]26 binding to HEK-hDAT membranes.

T1 sequence (Q01959 whole entry): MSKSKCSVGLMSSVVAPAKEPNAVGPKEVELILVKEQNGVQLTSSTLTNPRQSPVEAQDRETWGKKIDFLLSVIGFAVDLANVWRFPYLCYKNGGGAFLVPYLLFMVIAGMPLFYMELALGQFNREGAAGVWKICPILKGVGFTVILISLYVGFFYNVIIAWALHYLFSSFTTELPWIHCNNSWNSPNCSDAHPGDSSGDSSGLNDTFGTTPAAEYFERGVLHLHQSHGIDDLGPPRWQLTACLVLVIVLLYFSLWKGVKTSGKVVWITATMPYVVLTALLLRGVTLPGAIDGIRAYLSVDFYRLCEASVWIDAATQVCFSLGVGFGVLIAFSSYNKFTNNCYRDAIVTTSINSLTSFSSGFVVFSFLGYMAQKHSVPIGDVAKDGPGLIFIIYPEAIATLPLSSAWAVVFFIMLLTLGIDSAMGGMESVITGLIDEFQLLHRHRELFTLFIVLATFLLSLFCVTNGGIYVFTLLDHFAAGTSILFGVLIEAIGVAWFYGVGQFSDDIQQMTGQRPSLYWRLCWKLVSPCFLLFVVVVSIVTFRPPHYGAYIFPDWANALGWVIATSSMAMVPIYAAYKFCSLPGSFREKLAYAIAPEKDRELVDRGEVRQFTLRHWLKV

On to `CNC(=O)[C@@]12C[C@@H]1[C@@H](n1cnc3c(NC)nc(C#Cc4ccc(Cl)s4)nc31)[C@H](O)[C@@H]2O` [compound 1, (1S,2R,3S,4R,5S)-4-(2-((5-chlorothiophen-2-yl)ethynyl)-6-(methylamino)-9H-purin-9-yl)-2,3-dihydroxy-N-methylbicyclo[3.1.0]hexane-1-carboxamide], for which the “hDAT Binding Inhibition, % of control” value at hDAT [1] was “NE (no effect)”. Also, the locomotor activity result in the series on mouse (10 mg/kg) is listed as “did not significantly stimulate locomotor activity”; with mouse (30 mg/kg), “reduced locomotor activity”. Moreover, the “inhibition of cytochrome P450 (5 isozymes)” value in series [2] is given as “do not inhibit”. Also, the “stability in the presence of liver microsomes, plasma and simulated body fluids” value in series [3] is reported as “stable”. Further, the tolerability in vivo result in [4] is recorded as “well tolerated”.
Turning to `COC(=O)[C@H]1[C@@H](c2ccc(I)cc2)CC2CC[C@H]1N2C` [compound 23, methyl (1R,2S,3S)-3-(4-iodophenyl)-8-methyl-8-azabicyclo[3.2.1]octane-2-carboxylate], the Kd at mDAT was 3.9 nM; on hDAT [5], 1.3 nM.
As to `CNc1nc(C#Cc2ccc(Cl)s2)nc2c1ncn2[C@@H]1O[C@H](C(=O)OC)[C@@H](O)[C@H]1O` [compound 29, Methyl (2S,3S,4R,5R)-5-(2-((5-Chlorothiophen-2-yl)ethynyl)-6-(methylamino)-9H-purin-9-yl)-3,4-dihydroxytetrahydrofuran-2-carboxylate], on hDAT [6], the inhibition at 10 µM was less than -20%. On hDAT [7], the “fold higher EC50 than 9 for enhancement of [^3H]26 binding at hDAT” value was determined as 7 fold.
